The source of these data is DBAASP.

SMILES strings stand for the structures. Converted amounts (≈) assume the structure as drawn.

Test systems include Escherichia coli 804; Staphylococcus aureus 75; Escherichia coli 780; Staphylococcus aureus.
Holding throughout (test): ≥ marks a high value that may be exact or a test limit, other limits are often not marked, values filed in µg/mL are converted to µM
In test [1] the test system is Klebsiella pneumoniae ATCC 700603.
In test [2] the test system is Pseudomonas aeruginosa ATCC 9027.
The test system of test [3] is Staphylococcus aureus ATCC 29213.
Test [4] relates to Pseudomonas aeruginosa 73.
In test [5] the test system is Acinetobacter baumannii 97830.
The test system of test [6] is Staphylococcus epidermidis ATCC 12228.
The subject of test [7] is Staphylococcus aureus 113.
In test [8] the test system is Pseudomonas aeruginosa ATCC 27853.
Test [9] has as its system Pseudomonas aeruginosa 50.
The test system of test [10] is Acinetobacter baumannii 9931.
For test [11], the system named is Bacillus subtilis ATCC 23857.
For test [12], the system named is Acinetobacter baumannii ATCC 19606.
Test [13] deals with Escherichia coli ATCC 25922.
The test system of test [14] is Shigella dysenteriae ATCC 9752.
Test [15] deals with Bacillus subtilis ATCC 6633.
Test [16] concerns Staphylococcus aureus TK784.
Test [17] relates to Klebsiella pneumoniae ATCC 10031.
Test [18] relates to Staphylococcus aureus ATCC 6538P.
Test [19] concerns Micrococcus luteus ATCC 10240.
Test [20] concerns Salmonella enterica subsp. enterica serovar Typhimurium ATCC 14028.
For test [21], the system named is Staphylococcus aureus ATCC BAA-1556.
Test [22] concerns Streptococcus mitis ATCC 903.
Test [23] concerns Streptococcus sanguinis NY101.
Test [24] concerns Streptococcus mutans UA159.
Test [25] relates to Streptococcus gordonii Challis DL1.
The subject of test [26] is Pseudomonas aeruginosa PAK.

`CC(C)C[C@H](NC(=O)[C@H](CCCN=C(N)N)NC(=O)[C@H](Cc1c[nH]c2ccccc12)NC(=O)[C@H](Cc1c[nH]c2ccccc12)NC(=O)[C@H](Cc1c[nH]c2ccccc12)NC(=O)[C@H](CCCN=C(N)N)NC(=O)[C@@H](N)CC(C)C)C(N)=O` [LRWWWRL]: the MIC in test [1] is 32 µM (≈ 35.7 µg/mL); in the test on Escherichia coli 804, 16 µM (≈ 17.8 µg/mL); in [2], 32 µM (≈ 35.7 µg/mL); in [3] it was 4 µM (≈ 4.46 µg/mL); in [4], at least 32 µM; in test [5], 16 µM (≈ 17.8 µg/mL). Further, the MIC in test [6] came to 8 µM (≈ 8.91 µg/mL); in test [7], 8 µM (≈ 8.91 µg/mL); in test [8] it was 16 µM (≈ 17.8 µg/mL); in test [9], 16 µM (≈ 17.8 µg/mL); in the test on Staphylococcus aureus 75, 4 µM (≈ 4.46 µg/mL); in test [10], 16 µM (≈ 17.8 µg/mL). Moreover, the MIC amounted to 16 µM (≈ 17.8 µg/mL) with Escherichia coli 780, 8 µM (≈ 8.91 µg/mL) in [11] and 64 µM (≈ 71.3 µg/mL) in test [12].

As for `CC(C)C[C@H](NC(=O)[C@H](CCCN=C(N)N)NC(=O)[C@H](CCCN=C(N)N)NC(=O)[C@H](Cc1c[nH]c2ccccc12)NC(=O)[C@H](Cc1c[nH]c2ccccc12)NC(=O)[C@H](Cc1c[nH]c2ccccc12)NC(=O)[C@H](CCCN=C(N)N)NC(=O)[C@H](CCCN=C(N)N)NC(=O)[C@@H](N)CC(C)C)C(N)=O` [LRRWWWRRL], the MIC in [1] was 32 µM (≈ 45.7 µg/mL); in the test on Escherichia coli 804, at least 32 µM; in test [2], 16 µM (≈ 22.8 µg/mL); in test [3] it was 4 µM (≈ 5.71 µg/mL); in test [4], at least 64 µM; in [5] it was 16 µM (≈ 22.8 µg/mL). Further, the MIC in test [6] was 2 µM (≈ 2.85 µg/mL); in test [7], 4 µM (≈ 5.71 µg/mL); in test [8], 16 µM (≈ 22.8 µg/mL); in [9] it was 8 µM (≈ 11.4 µg/mL); in the test on Staphylococcus aureus 75, 4 µM (≈ 5.71 µg/mL); in test [10], 16 µM (≈ 22.8 µg/mL). Besides, the figures for the MIC (against Escherichia coli 780; in test [11]; in test [12]) were 8 µM (≈ 11.4 µg/mL), 2 µM (≈ 2.85 µg/mL) and 64 µM (≈ 91.3 µg/mL), respectively.

`CC(C)C[C@H](NC(=O)[C@H](CC(C)C)NC(=O)[C@H](CCCCN)NC(=O)[C@H](CCCCN)NC(=O)[C@H](CC(C)C)NC(=O)[C@H](CC(C)C)NC(=O)[C@H](CCCCN)NC(=O)[C@H](CCCCN)NC(=O)[C@H](CC(C)C)NC(=O)[C@H](Cc1c[nH]c2ccccc12)NC(=O)[C@@H](N)CCCCN)C(N)=O` [KWLKKLLKKLL]: the MIC stood at 1.42 µM (≈ 2 µg/mL) in [13]; 0.709 µM (≈ 0.999 µg/mL) in test [14]; 1.42 µM (≈ 2 µg/mL) in test [15]; 5.67 µM (≈ 7.99 µg/mL) in [16]; 1.42 µM (≈ 2 µg/mL) in test [17]; 1.42 µM (≈ 2 µg/mL) in [18]. For the same molecule, the MIC in test [19] was 2.84 µM (≈ 4 µg/mL); in [6], 1.42 µM (≈ 2 µg/mL); in test [8], 5.67 µM (≈ 7.99 µg/mL); in test [20], 1.42 µM (≈ 2 µg/mL).

In test [21], `CC(C)C[C@H](NC(=O)[C@H](CC(C)C)NC(=O)[C@H](CC(C)C)NC(=O)[C@H](CC(C)C)NC(=O)[C@H](CC(C)C)NC(=O)[C@H](CC(C)C)NC(=O)[C@H](CCCCN)NC(=O)[C@H](CCCCN)NC(=O)[C@@H](N)CC(C)C)C(N)=O` [LKKLLLLLL] yielded an MIC of at least 100 µM.

As for `NC(=O)[C@H](Cc1c[nH]c2ccccc12)NC(=O)[C@H](Cc1c[nH]c2ccccc12)NC(=O)[C@H](CCCN=C(N)N)NC(=O)[C@H](Cc1c[nH]c2ccccc12)NC(=O)[C@H](Cc1c[nH]c2ccccc12)NC(=O)[C@H](Cc1c[nH]c2ccccc12)NC(=O)[C@H](CCCN=C(N)N)NC(=O)[C@H](Cc1c[nH]c2ccccc12)NC(=O)[C@@H](N)Cc1c[nH]c2ccccc12` [WWRWWWRWW], the MIC in test [1] is 32 µM (≈ 52.3 µg/mL); against Escherichia coli 804, at least 64 µM; in test [2] it was over 128 µM; in [3] it was 8 µM (≈ 13.1 µg/mL); in test [4] it was at least 128 µM; in test [5] it was at least 64 µM. Besides, the MIC in test [6] was 4 µM (≈ 6.53 µg/mL); in test [7], 16 µM (≈ 26.1 µg/mL); in test [8] it was over 128 µM; in test [9], at least 128 µM; against Staphylococcus aureus 75, 8 µM (≈ 13.1 µg/mL); in [10] it was at least 32 µM. For the same molecule, the MIC is at least 64 µM in the test on Escherichia coli 780, 4 µM (≈ 6.53 µg/mL) in test [11] and over 128 µM in [12].

For `CC(C)C[C@H](NC(=O)[C@H](CC(C)C)NC(=O)[C@H](CC(C)C)NC(=O)[C@H](CCCCN)NC(=O)[C@H](CC(C)C)NC(=O)[C@H](CC(C)C)NC(=O)[C@H](CC(C)C)NC(=O)[C@@H](N)CC(C)C)C(=O)N[C@@H](CCCCN)C(N)=O` [LLLLKLLLK], in test [21], the MIC is at least 100 µM.

`CC(C)C[C@H](NC(=O)[C@H](CC(C)C)NC(=O)[C@H](Cc1c[nH]c2ccccc12)NC(=O)[C@H](CCCCN)NC(=O)[C@H](CC(C)C)NC(=O)[C@H](CC(C)C)NC(=O)[C@H](Cc1c[nH]c2ccccc12)NC(=O)[C@H](CCCCN)NC(=O)[C@@H](N)CC(C)C)C(N)=O` [LKWLLKWLL]: the MIC came to 4.12 µM (≈ 5 µg/mL) in [13]; 2.06 µM (≈ 2.5 µg/mL) in test [14]; 1.07 µM (≈ 1.3 µg/mL) in [15]; 2.06 µM (≈ 2.5 µg/mL) in test [16]; 4.12 µM (≈ 5 µg/mL) in test [17]; 1.07 µM (≈ 1.3 µg/mL) in [18]. Moreover, the minimum inhibitory concentration (MIC) in test [19] worked out at 2.06 µM (≈ 2.5 µg/mL); in [6] it was 1.07 µM (≈ 1.3 µg/mL); in test [8] it was 8.25 µM (≈ 9.99 µg/mL); in test [20], 8.25 µM (≈ 9.99 µg/mL).

For the molecule `CC[C@H](C)[C@H](NC(=O)[C@H](Cc1ccccc1)NC(=O)[C@H](Cc1cnc[nH]1)NC(=O)[C@H](CCCCN)NC(=O)[C@@H](NC(=O)[C@@H](N)Cc1ccccc1)[C@@H](C)CC)C(=O)N[C@@H](Cc1cnc[nH]1)C(=O)N[C@@H](CCCN=C(N)N)C(=O)N[C@@H](Cc1ccccc1)C(=O)N[C@@H](CO)C(=O)NCC(=O)NCC(=O)N[C@@H](CCCN=C(N)N)C(=O)N[C@@H](Cc1c[nH]c2ccccc12)C(=O)N[C@@H](CCCN=C(N)N)C(=O)N[C@@H](Cc1c[nH]c2ccccc12)C(=O)N[C@@H](CCCN=C(N)N)C(=O)N[C@@H](Cc1c[nH]c2ccccc12)C(=O)N[C@@H](Cc1ccccc1)C(N)=O` [FIKHFIHRFSGGRWRWRWF], the MIC in [22] is 12.2 µM (≈ 32 µg/mL); against Staphylococcus aureus, 12.2 µM (≈ 32 µg/mL); in [23], 12.2 µM (≈ 32 µg/mL); in [24], 3.05 µM (≈ 8 µg/mL); in test [25], 12.2 µM (≈ 32 µg/mL); in test [26] it was 23.9 µM (≈ 62.5 µg/mL).

`CC(C)C[C@H](NC(=O)[C@H](CCCCN)NC(=O)[C@H](CC(C)C)NC(=O)[C@H](CC(C)C)NC(=O)[C@H](CC(C)C)NC(=O)[C@H](CC(C)C)NC(=O)[C@H](CC(C)C)NC(=O)[C@H](CCCCN)NC(=O)[C@@H](N)CC(C)C)C(N)=O` [LKLLLLLKL]: the MIC in test [21] is at least 100 µM.
